Source: patent publication US9682953B2, “Amide compounds, compositions and applications thereof” (Advinus Therapeutics Limited, priority 2011, dated 2017)
Where two headings read alike, the source gives them in different places.

Key:
[1] = target: rat Fatty Acid Amide Hydrolase (FAAH) (Rattus norvegicus (Rat), UniProt P97612); assay: FAAH in vitro fluorescence assay (AAMCA hydrolysis), rat enzyme; assay type: biochemical; settings: rat FAAH; for IC50: read-out: rFAAH IC50; for inhibition at 0.1 µM: read-out: rFAAH % inhibition at 100 nM; for inhibition at 10 µM: read-out: rFAAH % inhibition at 10 uM
rat Fatty Acid Amide Hydrolase (FAAH), sequence (P97612 30-579): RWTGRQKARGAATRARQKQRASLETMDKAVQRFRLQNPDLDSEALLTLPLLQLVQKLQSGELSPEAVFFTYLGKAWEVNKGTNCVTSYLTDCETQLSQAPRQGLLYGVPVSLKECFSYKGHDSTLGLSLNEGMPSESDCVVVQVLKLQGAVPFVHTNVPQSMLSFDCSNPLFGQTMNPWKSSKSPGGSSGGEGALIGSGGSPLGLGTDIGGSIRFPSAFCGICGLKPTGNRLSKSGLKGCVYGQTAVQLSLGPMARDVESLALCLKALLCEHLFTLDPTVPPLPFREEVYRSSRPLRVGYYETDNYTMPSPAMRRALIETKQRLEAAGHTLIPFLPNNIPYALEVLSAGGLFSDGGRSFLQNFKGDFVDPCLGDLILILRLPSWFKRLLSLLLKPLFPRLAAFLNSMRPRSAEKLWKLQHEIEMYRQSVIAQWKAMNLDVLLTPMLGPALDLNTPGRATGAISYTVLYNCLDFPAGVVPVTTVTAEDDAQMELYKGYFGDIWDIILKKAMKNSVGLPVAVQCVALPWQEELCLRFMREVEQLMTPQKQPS
Method in brief: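 Rat FAAH, E. coli-expressed with groEL-groES chaperone, used as enriched membrane extract with 10 μM AAMCA in 50 mM HEPES, 1 mM EDTA, 0.1% BSA, pH 7.4 (1% DMSO final).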

[2] = target: human Fatty Acid Amide Hydrolase (FAAH) (Homo sapiens (Human), UniProt O00519); assay: biochemical
human Fatty Acid Amide Hydrolase (FAAH), sequence (O00519 30-579): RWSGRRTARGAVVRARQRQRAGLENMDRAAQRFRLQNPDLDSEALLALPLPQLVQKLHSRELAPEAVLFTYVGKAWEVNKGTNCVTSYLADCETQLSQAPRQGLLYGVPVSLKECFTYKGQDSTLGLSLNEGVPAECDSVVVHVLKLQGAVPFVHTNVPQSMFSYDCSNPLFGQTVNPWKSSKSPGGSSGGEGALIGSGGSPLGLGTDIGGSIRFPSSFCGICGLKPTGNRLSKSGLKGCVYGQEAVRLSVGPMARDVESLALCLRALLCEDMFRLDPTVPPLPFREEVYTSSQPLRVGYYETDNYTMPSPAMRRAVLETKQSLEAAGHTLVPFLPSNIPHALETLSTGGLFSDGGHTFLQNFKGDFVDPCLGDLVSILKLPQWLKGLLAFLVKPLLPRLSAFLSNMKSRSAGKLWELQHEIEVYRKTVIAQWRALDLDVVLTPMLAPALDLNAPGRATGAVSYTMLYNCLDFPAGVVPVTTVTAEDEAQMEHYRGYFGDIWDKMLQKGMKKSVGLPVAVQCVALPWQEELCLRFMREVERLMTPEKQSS

[3] = human FAAH, read-out: hFAAH IC50

Structure (SMILES)	IC50 [1]	IC50 ([2]; read-out: hFAAH IC50)	IC50 [2, 3]	also measured
O=C(NC1CCC(=Cc2cccc(Oc3ccc(C(F)(F)F)cn3)c2)CC1)c1cnc2[nH]ccc2c1 [Example 2.D-5, N-[4-[[3-[[5-(Trifluoromethyl)-2-pyridyl]oxy]phenyl]methylene]cyclohexyl]-1H-pyrrolo[2,3-b]pyridine-5-carboxamide]	0.016 µM	0.002 µM		
Cc1nnc(C(=O)NC2CCC(=Cc3cccc(Oc4ccc(C(F)(F)F)cn4)c3)CC2)o1 (stereo not shown) [Example 2.A-20, 5-Methyl-N-[4-[[3-[[5-(trifluoromethyl)-2-pyridyl]oxy]phenyl]methylene]cyclohexyl]-1,3,4-oxadiazole-2-carboxamide]			0.334 µM	rFAAH % inhibition at 100 nM ([1]; 100 nM (tier I)): No inhibition at 100 nM
O=C(NC1CCC(=Cc2cccc(Oc3ccc(C(F)(F)F)cn3)c2)CC1)c1ccc(-c2nnn[nH]2)nc1 (stereo not shown) [Example 11.1, 6-(1H-Tetrazol-5-yl)-N-[4-[[3-[[5-(trifluoromethyl)-2-pyridyl]oxy]-phenyl]methylene]cyclohexyl]pyridine-3-carboxamide]		0.012 µM		inhibition at 0.1 µM ([1]; 100 nM (tier I)): 50%
O=C(NC1CCC(=Cc2cccc(Oc3ccc(C(F)(F)F)cn3)c2)CC1)c1c[nH]c2ccccc12 (single isomer, unassigned; (+)) [Example 20.A-17, (+)-N-[4-[[3-[[5-(trifluoromethyl)-2-pyridyl]oxy]phenyl]methylene]cyclohexyl]-1H-indole-3-carboxamide]		0.155 µM		inhibition at 10 µM [1]: 90%
O=C(NC1CCC(=Cc2cccc(Oc3ccc(C(F)(F)F)cn3)c2)CC1)c1ccc(-n2ccnn2)nc1 (stereo not shown) [Example 2.B-14, 6-(Triazol-1-yl)-N-[4-[[3-[[5-(trifluoromethyl)-2-pyridyl]oxy]phenyl]methylene]cyclohexyl]pyridine-3-carboxamide]	0.011 µM	0.002 µM		
COc1ccc(C(=O)NC2CCC(=Cc3cccc(Oc4ccc(C(F)(F)F)cn4)c3)CC2)cn1 (stereo not shown) [Example 2.C-2, 6-Methoxy-N-[4-[[3-[[5-(trifluoromethyl)-2-pyridyl]oxy]phenyl]methylene]cyclohexyl]pyridine-3-carboxamide]	0.021 µM	0.005 µM		
O=C(NC1CCC(=Cc2cccc(Oc3ccc(C(F)(F)F)cn3)c2)CC1)c1cncc(O)c1 (stereo not shown) [Example 2.C-4, 5-Hydroxy-N-[4-[[3-[[5-(trifluoromethyl)-2-pyridyl]oxy]phenyl]methylene]cyclohexyl]pyridine-3-carboxamide]	0.021 µM		0.004 µM	
CN(C)c1ccc(C(=O)NC2CCC(=Cc3cccc(Oc4ccc(C(F)(F)F)cn4)c3)CC2)cn1 (stereo not shown) [Example 5.1, 6-(Dimethylamino)-N-[4-[[3-[[5-(trifluoromethyl)-2-pyridyl]oxy]-phenyl]methylene]cyclohexyl]pyridine-3-carboxamide]	0.013 µM	0.007 µM		
O=C(Nc1ncc(Cl)s1)C1CCC(=Cc2cccc(Oc3ccc(C(F)(F)F)cn3)c2)CC1 (stereo not shown) [Example 1.1, N-(5-Chlorothiazol-2-yl)-4-[[3-[[5-(trifluoromethyl)-2-pyridyl]oxy]phenyl]methylene]cyclohexanecarboxamide]	0.06 µM		0.016 µM	
Cc1n[nH]c(C)c1-c1ccc(C(=O)NC2CCC(=Cc3cccc(Oc4ccc(C(F)(F)F)cn4)c3)CC2)cn1 (stereo not shown) [Example 2.B-11, 6-(3,5-Dimethyl-1H-pyrazol-4-yl)-N-[4-[[3-[[5-(trifluoromethyl)-2-pyridyl]oxy]phenyl]methylene]cyclohexyl]pyridine-3-carboxamide]	0.052 µM		0.017 µM	
O=C(NC1CCC(=Cc2cccc(Oc3ccc(C(F)(F)F)cn3)c2)CC1)c1ccc(Cl)nc1 (stereo not shown) [Example 2.A-22, 6-Chloro-N-[4-[[3-[[5-(trifluoromethyl)-2-pyridyl]oxy]phenyl]methylene]cyclohexyl]pyridine-3-carboxamide]	0.081 µM		0.005 µM	
Nc1ccc(C(=O)NC2CCC(=Cc3cccc(Oc4ccc(C(F)(F)F)cn4)c3)CC2)cn1 (single isomer, unassigned; (+)) [Example 20.A-3, (+)-6-Amino-N-[4-[[3-[[5-(trifluoromethyl)-2-pyridyl]oxy]phenyl]methylene]cyclohexyl]pyridine-3-carboxamide]		0.361 µM		inhibition at 10 µM [1]: 70%
O=C(NC1CCC(=Cc2cccc(Oc3ccc(C(F)(F)F)cn3)c2)CC1)c1cccnn1 (stereo not shown) [Example 2.A-11, N-[4-[[3-[[5-(Trifluoromethyl)-2-pyridyl]oxy]phenyl]methylene]cyclohexyl]pyridazine-3-carboxamide]	0.194 µM	0.011 µM		
O=C(O)c1cnn(-c2ccc(C(=O)NC3CCC(=Cc4cccc(Oc5ccc(C(F)(F)F)cn5)c4)CC3)cn2)c1 (stereo not shown) [Example 8.A-4, 1-[5-[[4-[[3-[[5-(Trifluoromethyl)-2-pyridyl]oxy]phenyl]methylene]cyclohexyl]carbamoyl]-2-pyridyl]pyrazole-4-carboxylic acid]				inhibition at 0.1 µM ([1]; 100 nM (tier I)): 15%; IC50 ([2]; hFAAH IC50): 0.027 µM
